Experimental findings from paper PMC3210175, “8-Modified-2′-Deoxyadenosine Analogues Induce Delayed Polymerization Arrest during HIV-1 Reverse Transcription” (PLoS ONE, 2011) are described below.

Structures are written as SMILES. Entries after “also recorded” stand apart in the source; their conditions may differ. Where two headings read alike, the source gives them in different places.

Data set [1] concerns HIV-1 LAI in CEM-SS cells. The experiment in a line: HIV-1 inhibition in cell culture (RT activity in cell culture supernatants). It counts as cell-based. Conditions: mean ± SD, four independent experiments. Here is the method:
(§1) We thus addressed the antiviral activity of our nucleoside analogues in cell culture. All the synthesized nucleoside analogues (2a–g, 3, 7, 8 and 9) were tested for their ability to reduce HIV-1 LAI in CEM-SS cells. Viral replication was monitored by measuring the RT activity in the cell culture supernatants, while compound's cytotoxicity on uninfected cells was assessed using an MTT assay.
(§2) The activity of the nucleoside analogues 2a–g, 3, 7, 8 and 9 on HIV-1 replication was determined by measuring the RT activity associated with virus particles released from CEM-SS cells infected with HIV-1 Lai. The 50% cytotoxic concentration (CC50) was evaluated in parallel to the 50% inhibitory concentration (IC50)[37].

Data set [2] in a line: Cytotoxicity on uninfected cells, MTT assay. Conditions: human, uninfected CEM-SS cells, mean ± SD, four independent experiments. The format is cell-based. The procedure: as §1, §2
(In general: Formazan colour is commonly taken as a measure of viable cells.)

The target of data set [3] is T1, HIV-1 RT (Human immunodeficiency virus type 1 group M subtype B, UniProt P04585, E1065Q).
T1 construct: helix αH in the thumb domain of the p66 subunit of HIV-1 RT; made in house
The experiment in a line: (−) strand "n+6" DNA synthesis assay (ddATP instead of dATP; DCT-modified 18- or 19-mer primer on 1–311 HIV-1 MAL RNA template). The format is biochemical. Conditions: for Inhibition of (−) strand DNA synthesis (DCT in the primer), DCT at 3′-end 18 mer: "n+6" DNA synthesis assay, analogue incorporated at 3′ end of 18-mer DNA primer; for Delayed chain termination (accumulation of n+3 products): DCT at penultimate position of 19-mer primer, both 10 and 30 nM RT. The text has this: (§3) Viral RNA, comprising the first 311 nucleotides of the HIV-1 genomic RNA (Mal isolate) was in vitro transcribed and purified as previously described. 18-, 19 and 31-mer DNA oligodeoxynucleotides containing the modified 2′-dA analogues respectively at 3′ end, at the penultimate position of 3′ end and at a distance of 12 nucleotides from their 5′ end were chemically synthesized and purified as described above (Figure 5). Unmodified and modified 18- and 19-mer primers were labelled at their 5′ end with [γ-^32]ATP using phage T4 polynucleotide kinase and purified on 8% denaturing polyacrylamide gels. RNase H (−) reverse transcriptase bearing the E478Q mutation that abolishes RNase H activity (RT^EQ) was expressed and purified according to a method adapted from.
(§4) Primer/template (P/T) complexes, at a final concentration of 300 nM, were formed by incubating the primer with a 3 fold excess of either 1–311 viral RNA or modified 31-mer DNA oligonucleotide in water for 2 min at 90°C, cooling on ice for 2 min and incubating for 20 min at 50°C in 100 mM NaCl.
Ten nM P/T (with the 311 vRNA as template) were pre-incubated with 10 or 30 nM of RT at 37°C for 4 min. Reactions were initiated by the addition of 50 µM of each of the four dNTPs and stopped at various times with equal amounts of buffer containing formamide. The same procedure was used for synthesis of “+6” DNA except that ddATP was substituted for dATP. Reaction products were denatured for 2 min at 90°C prior to separation on an 8% polyacrylamide denaturing gel and quantified using a Fuji FLA-5100 analyser and the Image Gauge program.

For data set [4], the target named is T1, HIV-1 RT. As to the kind of experiment: (+) strand DNA synthesis assay (DCT in 31-mer DNA template, 18-mer DNA primer). It counts as biochemical. The following applies: analogue in 31-mer DNA template; RT 10 or 30 nM.
Text: as §3, §4
Thirty one-mer DNA templates, containing or not a modified 2′-deoxyadenosine were hybridized to an 18-mer DNA primer (Figure 5) and subsequent DNA synthesis and analysis of the reaction products were performed as described above.

Another data set relates to CEM-SS cells. The experiment in a line: Cytotoxicity on uninfected cells, MTT assay. The following applies: mean ± SD, four independent experiments. The format is cell-based. The procedure: as §1, §2
The target of data set [5] is T1, HIV-1 RT. The experiment in a line: (−) strand strong-stop DNA synthesis assay (DCT-modified 19-mer DNA primer on 1–311 HIV-1 MAL RNA template). It counts as biochemical. Conditions: 10 nM RT, full-length product.
Text: as §3, §4
Ten nM P/T (with the 311 vRNA as template) were pre-incubated with 10 or 30 nM of RT at 37°C for 4 min. […] Reaction products were denatured for 2 min at 90°C prior to separation on an 8% polyacrylamide denaturing gel and quantified using a Fuji FLA-5100 analyser and the Image Gauge program.

Data set [6] addresses T1, HIV-1 RT. The experiment in a line: DNA-directed DNA synthesis with modified 19-mer primer on 41-mer DNA template (Figure S2). The following applies: 8-MeS-dAMP at penultimate position of 19-mer primer, 10 or 90 nM RT. The format is biochemical. The source says:
Supplementary file pone.0027456.s002.docx: Figure S2 Comparative effect of 8-MeS-dA on (−) and (+) strand DNA synthesis. A. Templates and primers used for the study. The template is either 1–311 HIV-1 MAL RNA, for which part of the sequence is shown, or a 41-mer DNA oligonucleotide. The primer is a 19- mer DNA strictly complementary to the central part of the template. X corresponds to either dAMP or 8-MeS-dAMP inserted at the penultimate position of the primer. “n” corresponds to the position of the modified nucleotide. B. Time course of in vitro DNA synthesis using 10 nM of primer/template complexes preincubated with either 10 or 90 nM of HIV-1 RT. Polymerization was initiated by the addition of 20 µM of dTTP, dGTP and dCTP as well as 50 µM of ddATP for the RNA-directed synthesis or 20 µM of dATP, dTTP, dCTP and 50 µM of ddGTP for the DNA directed synthesis. Reactions were stopped after 15, 60 and 120 min. (+6) and (+7) refer to the 6th and 7th nucleotides to be added with respect to the position of the modified nucleotide analogue. (DOCX) Click here for additional data file.

Where [7] appears, read: Human immunodeficiency virus 1, CEM-SS, read-out: EC50.

As for `CN(C)c1nc2c(N)ncnc2n1[C@H]1C[C@H](O)[C@@H](CO)O1` [2a, 8-Dimethylamino-2'-deoxyadenosine], the EC50 (in general, the concentration at which the effect is half-maximal) in data set [1] (setting [7]) was greater than 100 µM. The CC50 (in general, the concentration at which the toxic effect on the cells reaches its halfway point) in data set [2] was greater than 100 µM.

For the compound `CCN(C)c1nc2c(N)ncnc2n1[C@H]1C[C@H](O)[C@@H](CO)O1` [2b, 8-Ethylmethylamino-2'-deoxyadenosine], the “Inhibition of (−) strand DNA synthesis (DCT in the primer), DCT at 3′-end 18 mer” value on HIV-1 RT [3] (10 nM RT) and on HIV-1 RT [3] (30 nM RT) was “immediate chain terminator; also recorded: termination” in each case. The “Delayed chain termination (accumulation of n+3 products)” value on HIV-1 RT [3] is recorded as “clearly induced a delayed chain termination”. In addition, the “Effect on primer extension pattern / enzyme pausing in (+) strand DNA synthesis” value at HIV-1 RT [4] was “enzyme pausing is obvious at positions n+1 and mainly n+2”. For the same compound, the concentration for a half-maximal effect (EC50) in data set [1] (setting [7]) was greater than 100 µM. The compound further had a CC50 in data set [2] greater than 100 µM.

Regarding `CCN(CC)c1nc2c(N)ncnc2n1[C@H]1C[C@H](O)[C@@H](CO)O1` [2c, 8-Diethylamino-2'-deoxyadenosine], in data set [1] (setting [7]), the EC50 was greater than 100 µM. Moreover, the CC50 in data set [2] was greater than 100 µM.

Take `Nc1ncnc2c1nc(N1CCCC1)n2[C@H]1C[C@H](O)[C@@H](CO)O1` [2d, 8-Pyrrolidin-2'-deoxyadenosine]: in data set [1] (setting [7]), the EC50 is greater than 100 µM. For the same compound, the CC50 in data set [2] was greater than 100 µM.

Regarding `Nc1ncnc2c1nc(N1CCCCC1)n2[C@H]1C[C@H](O)[C@@H](CO)O1` [2e, 8-Piperidin-2'-deoxyadenosine], the EC50 in data set [1] (setting [7]) was greater than 100 µM. In addition, the CC50 in data set [2] is greater than 100 µM.

`CC(C)Nc1nc2c(N)ncnc2n1[C@H]1C[C@H](O)[C@@H](CO)O1` [2f, 8-iPropyl-amino-2'-deoxyadenosine]: the “Delayed chain termination (accumulation of n+3 products)” value at HIV-1 RT [3] is on record as “clearly induced a delayed chain termination”. Moreover, the “Effect on primer extension pattern / enzyme pausing in (+) strand DNA synthesis” value on HIV-1 RT [4] is “enzyme pausing is obvious at positions n+1 and mainly n+2”. Besides, the EC50 is 14 µM in data set [1] (setting [7]), “moderate anti-HIV-1 activity” in data set [1] (listed as 8-iPr-N-dA) and 14.2 ± 1.9 µM in data set [1] (read-out: EC50). Further, the CC50 in data set [2] worked out at 81 µM; with CEM-SS cells, 81.3 ± 6.1 µM.

Turning to `CC(C)CNc1nc2c(N)ncnc2n1[C@H]1C[C@H](O)[C@@H](CO)O1` [2g, 8-iButyl-amino-2'-deoxyadenosine], the “Inhibition of (−) strand DNA synthesis (DCT in the primer), DCT at penultimate position 19 mer” value on HIV-1 RT [5] is on record as “same pattern as the unmodified primer”. The “Delayed chain termination (accumulation of n+3 products)” value at HIV-1 RT [3] was “did not impact”. For the same compound, the “Effect on primer extension pattern / enzyme pausing in (+) strand DNA synthesis” value on HIV-1 RT [4] is reported as “does not affect this pattern”. In data set [1] (setting [7]), the EC50 is greater than 100 µM. In data set [2], this compound gave a CC50 greater than 100 µM.

For `CSc1nc2c(N)ncnc2n1[C@H]1C[C@H](O)[C@@H](CO)O1` [compound 3, 8-Methylthio-2′-deoxyadenosine], the “Delayed chain termination (accumulation of n+3 products)” value at HIV-1 RT [3] is reported as “clearly induced a delayed chain termination”. In addition, at HIV-1 RT [4], the “Effect on primer extension pattern / enzyme pausing in (+) strand DNA synthesis” value was “enzyme pausing is obvious at positions n+1 and mainly n+2”. Also, the concentration giving a half-maximal response (EC50) in data set [1] (setting [7]) was greater than 100 µM. In data set [2], this compound returned a CC50 greater than 100 µM. Further, the “Delayed chain termination with DNA rather than RNA as template” value at HIV-1 RT [6] was “did not act as a delayed chain terminator”.

Consider `NC(=O)c1nc2c(N)ncnc2n1[C@H]1C[C@H](O)[C@@H](CO)O1` [compound 7, 8-Carbamoyl-2′-deoxyadenosine], for which the EC50 in data set [1] (setting [7]) is greater than 100 µM. In addition, the CC50 in data set [2] is greater than 100 µM.

`C=Cc1nc2c(N)ncnc2n1[C@H]1C[C@H](O)[C@@H](CO)O1` [compound 8, 8-Vinyl-2′-deoxyadenosine]: the “Effect on primer extension pattern / enzyme pausing in (+) strand DNA synthesis” value at HIV-1 RT [4] was “enzyme pausing is obvious at positions n+1 and mainly n+2”. Further, the EC50 in data set [1] (setting [7]) is greater than 100 µM. In data set [2], the 50% cytotoxic concentration (CC50) was greater than 100 µM.

On to `CCc1nc2c(N)ncnc2n1[C@H]1C[C@H](O)[C@@H](CO)O1` [compound 9, 8-Ethyl-2′-deoxyadenosine], for which the “Effect on primer extension pattern / enzyme pausing in (+) strand DNA synthesis” value on HIV-1 RT [4] is “enzyme pausing is obvious at positions n+1 and mainly n+2”. In addition, the EC50 in data set [1] (setting [7]) was greater than 100 µM. This compound returned a CC50 in data set [2] greater than 100 µM.
